Source: patent US8067602B2, “Asymmetric cyanine fluorescent dyes, compositions and their use in staining biological samples” (Shenzhen Mindray Bio-Medical Electronics Co., Ltd., priority 2008, dated 2011)

Columns and labels:
[1] = Fluorescence quantum yield in ethanol; assay type: physicochemical; settings: room temperature, triplicate, Rhodamine B as standard
Method: Each of the dyes were detected in triplicate at room temperature. Fluorescence quantum yields were calculated and averaged. With Rhodamine B as the standard (φF=0.97, ethanol), the fluorescence quantum yield for the known compound M in the ethanol solution was calculated to be φF=1.099×10^−2; for Dye-1, φF=1.590×10^−2; for Dye-2, φF=1.248×10^−2; and for Dye-3, φF=1.181×10^−2. The instrument used was UV-Vis spectrophotometer Model Lambda 35, and fluorescence spectrophotometer Model FL-4500.

salmon sperm DNA = test: Fluorescence intensity of dye in PBS with salmon sperm DNA (excitation 633 nm); assay type: binding; settings: for fluorescence of the dye per se in PBS without nucleic acid: PBS without DNA/RNA; for Relative fluorescence intensity after binding DNA / Relative fluorescence intensity before binding DNA: in PBS; for Relative fluorescence intensity after binding DNA: bound with salmon sperm DNA; for Relative fluorescence intensity before binding DNA: no DNA; for Ratio of increase in fluorescence (after vs before binding): salmon sperm DNA in PBS
Method: An amount of Dye-1 was accurately weighed and sufficiently dissolved in 2.5 mL methanol/ethylene glycol (50:50 vol/vol) to prepare a dye solution at a concentration of 5 mM. This solution was filtered before use. Separate amounts of salmon sperm DNA were weighed and dissolved in PBS to obtain PBS buffers containing 3 mg/mL, 1 mg/mL, 0.3 mg/mL, 0.1 mg/mL of DNA. 2-μL aliquots of the prepared 5 mM dye solution were accurately measured and respectively combined in 1 mL PBS with 1 μL of the PBS buffers containing different concentrations of DNA. After reacting for a period of time, the complexes were detected for their emission spectra at the selected excitation wavelength of 633 nm. The detection temperature was at room temperature. The instrument used was fluorescence spectrophotometer Model FL-4500.
FIG. 2 is a comparison of the relative fluorescence strength of Dye-1 in PBS before and after it is bound with DNA.
(§1) The detection procedures followed were those described in Example 10 and Example 11. The fluorescence spectra for the complexes of Dye-2 with different concentrations of DNA or RNA are shown in FIG. 5 and FIG. 6, respectively. The comparisons of fluorescence for Dye-2 before and after it is bound with DNA or with RNA in PBS are shown in FIG. 7 and FIG. 8, respectively.
(§2) The detection procedures followed were those described in Example 10 and Example 11. The comparisons of fluorescence for Dye-3 before and after it bound with DNA or with RNA in PBS are shown in FIG. 9 and FIG. 10, respectively.
Table 1 compares the ratios of increase in fluorescence for Dye-1, Dye-2 and Dye-3 after vs before they bound with salmon sperm DNA in PBS.

[2] = system: soft-shelled turtle (Trionyx sinensis) liver RNA; test: Fluorescence intensity of dye in PBS with soft-shelled turtle liver RNA (excitation 633 nm); assay type: binding; settings: for ability to bind to nucleic acids versus Dye-0: concluded from FIG. 11; for increase in fluorescence intensity after binding RNA, comparison of dyes: identical concentrations, FIG. 11; for Relative fluorescence intensity after binding RNA / Relative fluorescence intensity before binding RNA: in PBS; for Relative fluorescence intensity after binding RNA: bound with turtle liver RNA; for Relative fluorescence intensity before binding RNA: no RNA; for Ratio of increase in fluorescence (after vs before binding): turtle liver RNA in PBS
Method: An amount of Dye-1 was accurately weighed and sufficiently dissolved in 2.5 mL methanol/ethylene glycol (50:50 vol/vol) to prepare a dye solution at a concentration of 5 mM. This solution was filtered before use. Separate amounts of soft-shelled turtle (Trionyx sinensis) liver RNA were weighed and dissolved in PBS to obtain PBS buffers containing 30 μg/mL, 10 μg/mL, 3 μg/mL, 1 μg/mL of RNA. 2-μL aliquots of the prepared 5 mM dye solution were accurately measured and respectively combined in 1 mL PBS with 1 μL of the PBS buffers containing different concentrations of RNA. After reacting for a period of time, the complexes were detected for their emission spectra at the selected excitation wavelength of 633 nm. The detection temperature was at room temperature. The instrument used was fluorescence spectrophotometer Model FL-4500.
FIG. 4 is a comparison of the relative fluorescence strength of Dye-1 in PBS before and after it is bound with RNA. As can likewise be seen in the figure, when Dye-1 formed complexes with RNA, there occurred a rapid increase in fluorescence intensity accompanied by a certain degree of red shift of fluorescence, with the maximum […] peak at about 655 nm in the near-infrared region, which can avoid the interference from the background fluorescence of the organisms per se and therefore improve the accuracy of detection.
as §1, §2
Table 2 compares the ratios of increase in fluorescence for Dye-1, Dye-2 and Dye-3 after vs before they bound with soft-shelled turtle (Trionyx sinensis) liver RNA in PBS.
The detection procedure followed was that described in Example 10. The fluorescence spectra for Dye-1, Dye-2 and Dye-0 after they bound in identical concentrations with soft-shelled turtle (Trionyx sinensis) liver RNA are shown in FIG. 11.

[3] = ethanol; cited from earlier work

Row | fluorescence quantum yield φF [1] | Relative fluorescence intensity after binding DNA (salmon sperm DNA) | Relative fluorescence intensity before binding DNA (salmon sperm DNA) | Ratio of increase in fluorescence (after vs before binding) (salmon sperm DNA) | Relative fluorescence intensity after binding RNA [2] | Relative fluorescence intensity before binding RNA [2] | Ratio of increase in fluorescence (after vs before binding) [2] | SMILES | fluorescence of the dye per se in PBS without nucleic acid (salmon sperm DNA) | ability to bind to nucleic acids versus Dye-0 [2] | increase in fluorescence intensity after binding RNA, comparison of dyes [2] | fluorescence quantum yield φF of the standard [3] | change of fluorescence emission strength of dye/DNA complexes with DNA concentration (salmon sperm DNA; DNA buffers 0.1-3 mg/mL, FIG. 1) | change of fluorescence emission strength of dye/RNA complexes with RNA concentration ([2]; RNA buffers 1-30 μg/mL, FIG. 3)
1 | 1.248×10^−2 | 102.93 | 0.97 | 106 | 37.28 | 0.97 | 38 | CCOC(=O)CCCN1C=C/C(=C\C=C\c2sc3ccccc3[n+]2CCO)c2ccccc21.[Br-] [Dye-2] | scarcely generated any fluorescence | superior to Dye-0 | marked increase in fluorescence intensity |  |  | 
2 | 1.181×10^−2 | 94.37 | 1.64 | 55 | 33.57 | 1.64 | 20 | OCCN1C=C/C(=C\C=C\c2sc3ccccc3[n+]2CCOc2ccccc2)c2ccccc21.[Br-] [Dye-3] | weak fluorescence |  |  |  |  | 

Continued, molecule first:

Row | SMILES | fluorescence quantum yield φF [1] | Relative fluorescence intensity after binding DNA (salmon sperm DNA) | Relative fluorescence intensity before binding DNA (salmon sperm DNA) | Ratio of increase in fluorescence (after vs before binding) (salmon sperm DNA) | Relative fluorescence intensity after binding RNA [2] | Relative fluorescence intensity before binding RNA [2] | Ratio of increase in fluorescence (after vs before binding) [2] | fluorescence of the dye per se in PBS without nucleic acid (salmon sperm DNA) | ability to bind to nucleic acids versus Dye-0 [2] | increase in fluorescence intensity after binding RNA, comparison of dyes [2] | fluorescence quantum yield φF of the standard [3] | change of fluorescence emission strength of dye/DNA complexes with DNA concentration (salmon sperm DNA; DNA buffers 0.1-3 mg/mL, FIG. 1) | change of fluorescence emission strength of dye/RNA complexes with RNA concentration ([2]; RNA buffers 1-30 μg/mL, FIG. 3)
3 | CCN1C=C/C(=C\C=C\c2sc3ccccc3[n+]2CC)c2ccccc21.[I-] [Dye-0, reference compound] | 1.099×10^−2 |  |  |  |  |  |  |  |  |  |  |  | 
4 | CCN(CC)c1ccc2c(-c3ccccc3C(=O)O)c3ccc(=[N+](CC)CC)cc-3oc2c1.[Cl-] [Rhodamine B] |  |  |  |  |  |  |  |  |  |  | 0.97 |  | 
5 | CCOC(=O)CCCCC[n+]1c(/C=C/C=C2\C=CN(Cc3ccccc3)c3ccccc32)sc2ccccc21.[Br-] [Dye-1] | 1.590×10^−2 | 68.63 | 1.82 | 38 | 83.24 | 1.82 | 46 | scarcely generated any fluorescence | superior to Dye-0 | largest magnitude of increase in fluorescence intensity |  | increased rapidly with the increase in DNA concentration | increased rapidly with the increase in RNA concentration
